Reference: patent US20230348378A1, “SMALL MOLECULE ALBUMIN BINDERS” (Oregon Health & Science University, priority 2020, published 2023)
Starred links: 1 amine or outer side, 2 acyl side, 3 side chain; linkers in the order of their positions; H or OH if unused. Positions of bridges follow the written chain, without caps; N, C: chain ends. Non-standard residues stand in square brackets, D forms with d. Residues, ends and D or L forms follow the SMILES beside them. *: point of attachment. DOTA = O=C(O)CN1CCN(CC(=O)O)CCN(CC(=O)*)CCN(CC(=O)O)CC1; NH(CH2CH2O)4CH2CO = O=C(COCCOCCOCCOCCN[*:1])[*:2]; X2 = O=C(CCCc1ccc(C(F)(F)F)c(F)c1)*; X1 = O=C(CCCc1ccc(C(F)(F)F)cc1)*

Assays:
[1] = molecular target: human serum albumin (HSA) (Homo sapiens, UniProt P02768); experiment: In vitro albumin protein binding ultrafiltration assay; details: for change of albumin binding affinity versus the corresponding ABX conjugate: D-ABCF3 vs ABCF3, hABCF3P vs ABCF3P, hABF3P vs ABF3P, εABCF3 vs ABCF3
Chain of human serum albumin (HSA) (P02768 25-609): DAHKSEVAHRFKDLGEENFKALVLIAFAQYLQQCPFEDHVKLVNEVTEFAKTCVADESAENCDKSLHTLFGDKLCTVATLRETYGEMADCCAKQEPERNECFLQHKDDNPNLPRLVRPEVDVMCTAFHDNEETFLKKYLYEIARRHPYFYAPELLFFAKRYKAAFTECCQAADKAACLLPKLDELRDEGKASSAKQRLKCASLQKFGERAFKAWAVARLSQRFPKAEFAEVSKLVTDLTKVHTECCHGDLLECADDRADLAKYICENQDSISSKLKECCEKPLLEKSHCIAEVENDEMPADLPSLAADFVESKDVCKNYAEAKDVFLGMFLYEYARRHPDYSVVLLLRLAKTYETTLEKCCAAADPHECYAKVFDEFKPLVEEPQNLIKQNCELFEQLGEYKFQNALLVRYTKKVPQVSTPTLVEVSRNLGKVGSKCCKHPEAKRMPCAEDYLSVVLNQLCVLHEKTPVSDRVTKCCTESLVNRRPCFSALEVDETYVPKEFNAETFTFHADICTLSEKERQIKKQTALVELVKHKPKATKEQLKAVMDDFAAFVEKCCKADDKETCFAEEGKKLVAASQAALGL
Description: Following the published protocol, ultrafiltration assay was performed to assess albumin-binding properties of ^111In or ^64Cu labeled albumin binder-radioligand conjugates. ^111In or ^64Cu radiolabeling was conducted in NH4OAc (0.2 M, pH=7.0) buffer at 80° C. for 30 min with a specific activity of 3.7 MBq/nmol (100 μCi/nmol). The resulting albumin binder-radioligand conjugate (10 μL, 10 μM) was mixed with 100 μL human serum albumin (HSA, 1.0 mM in PBS 1×) and 90 μL PBS, followed by shaking gently at 37° C. for 30 min. After the incubation, 80 μL of each solution was loaded on the Zeba™ spin desalting column (7K MWCO) and centrifuged at 1500 g for 2 min. Radioactivity in 20 μL of each filtration and 10 μL mixture (before filtration) were quantified by the γ counter. The filtration rate of each sample was calculated as filtered counts/(mixture counts×2)×100%, all obtained results were then normalized by setting standard ABCF3 moiety as 74.4%. for the comparison purpose. The experiment was performed with triplicates. For working curve, different final concentrations of HSA varied from 10-1500 μM were used, followed the same protocol.

[2] = system: PSMA+ PC3pip xenograft; set-up: species or system mice; details: mouse, in vivo
Description: Biodistribution studies were performed 2 weeks after the tumor inoculation, when the size of tumor reached 5 mm. ^111In-labeled albumin binder-radioligand conjugates (1.85 MBq, 100 μL) were then administered via a lateral tail vein. The mice were sacrificed at 1, 2, 16, 24, or 48 h post-injections. Selected organs were collected and weighed, and the radioactivity was measured by the γ counter (Packard, Cobra E5003). The results were calculated as percentage of the injected dose per gram of mass (% ID/g).

[3] = system: BxPC3 xenograft; experiment: Biodistribution in mice bearing BxPC3 xenograft; assay type: in vivo
[4] = filtration assay, [HSA]=500 μM, [tracers]=0.5 μM
[5] = in vivo evaluation of FRGD without albumin binder

[N-]=[N+]=NCCCC[C@H](NC(=O)CN1CCN(CC(=O)O)CCN(CC(=O)O)CCN(CC(=O)O)CC1)C(=O)NCC(=O)NCCCC[C@H](NCCC(=O)NCCCCc1ccc(C(F)(F)F)cc1)C(=O)O [εABCF3]
change of albumin binding affinity versus the corresponding ABX conjugate [1, 4]: significantly decrease its binding affinity

O=C(O)CC[C@H](NC(=O)N[C@@H](CCCCNC(=O)[C@H](Cc1ccc2ccccc2c1)NC(=O)[C@H]1CC[C@H](CNC(=O)[C@H](CCCCNC(=O)CN2CCN(CC(=O)O)CCN(CC(=O)O)CCN(CC(=O)O)CC2)NC(=O)CCC(=O)N[C@@H](CCCCNC(=O)CCCc2ccc(C(F)(F)F)cc2)C(=O)O)CC1)C(=O)O)C(=O)O (64Cu complex, metal not drawn) [PSMA617-ABCF3]
increase of specific tumor uptake compared to PSMA617 [2]: > 2 × | tumor/nontumor ratios compared to PSMA617 [2]: enhance tumor/nontumor ratios

CC(C)C[C@@H]1NC(=O)[C@H](CC(=O)O)NC(=O)CNC(=O)[C@H](CCCNC(=N)N)NC(=O)CNC(=O)[C@H]([C@@H](C)O)NC(=O)[C@@H](NC(=O)[C@H](CCCNC(=N)N)NC(=O)CNC(=O)CN2CCN(CC(=O)O)CCN(CC(=O)O)CCN(CC(=O)O)CC2)CSSC[C@@H](C(=O)N[C@@H](Cc2ccc(O)cc2)C(=O)N2CCC[C@H]2C(=O)N[C@@H](CC(=O)O)C(=O)NCCOCCOCCOCCOCC(=O)N[C@@H](CCCCNC(=O)CCCc2ccc(C(F)(F)F)cc2)C(=O)O)NC(=O)[C@H](CC(C)C)NC(=O)[C@H](CCCNC(=N)N)NC(=O)CNC1=O [SFLAP3-ABCF3] ({DOTA}-GRCTGRGDLGRLCYPD[NH(CH2CH2O)4CH2CO]K(X1)-OH; disulfide 3-13)
percentage bound to albumin protein ([1]; 64Cu-labeled, filtration assay, FIG. 6): ~75%

CC(C)C[C@@H]1NC(=O)[C@H](CC(=O)O)NC(=O)CNC(=O)[C@H](CCCNC(=N)N)NC(=O)[C@H](Cc2ccccc2)NC(=O)[C@H](CCCCN)N(C)C(=O)[C@H]2CCCN2C(=O)[C@H](Cc2ccccc2)NC(=O)[C@H](C)NC1=O (111In complex, metal not drawn) [FRGD]
kidney uptake ([3]; 111In labeled, without ABCF3): very high | non-tumor uptakes [3, 5]: high non-tumor uptakes | tumor uptake [3, 5]: relatively low tumor uptake

[N-]=[N+]=NCCCC[C@H](NC(=O)CN1CCN(CC(=O)O)CCN(CC(=O)O)CCN(CC(=O)O)CC1)C(=O)NCCCCCC(=O)N[C@H](CCCCCNC(=O)CCc1cc(F)c(F)c(F)c1)C(=O)O [hABF3P]
change of albumin binding affinity versus the corresponding ABX conjugate [1, 4]: slightly increased binding affinity

[N-]=[N+]=NCCCC[C@H](NC(=O)CN1CCC(CC(=O)O)CCN(CC(=O)O)CCN(CC(=O)O)CC1)C(=O)NCCCCCC(=O)N[C@@H](CCCCNC(=O)CCCc1ccc(C(F)(F)F)cc1)C(=O)O (some centres unmarked) [ABCF3]
filtration percentage (normalized) ([1]; 64Cu-labeled DOTA-albumin binder conjugate, [HSA]=500 μM, [tracers]=0.5 μM, value set as normalisation standard (average)): 75%

[N-]=[N+]=NCCCC[C@H](NC(=O)CN1CCC(CC(=O)O)CCN(CC(=O)O)CCN(CC(=O)O)CC1)C(=O)NCCCCCC(=O)N[C@H](CCCCNC(=O)CCCc1ccc(C(F)(F)F)cc1)C(=O)O (stereo partly drawn) [D-ABCF3]
change of albumin binding affinity versus the corresponding ABX conjugate [1, 4]: slightly increased binding affinity

CC(C)C[C@@H]1NC(=O)[C@H](CC(=O)O)NC(=O)CNC(=O)[C@H](CCCNC(=N)N)NC(=O)CNC(=O)[C@H]([C@@H](C)O)NC(=O)[C@@H](NC(=O)[C@H](CCCNC(=N)N)NC(=O)CNC(=O)CN2CCN(CC(=O)O)CCN(CC(=O)O)CCN(CC(=O)O)CC2)CSSC[C@@H](C(=O)N[C@@H](Cc2ccc(O)cc2)C(=O)N2CCC[C@H]2C(=O)N[C@@H](CC(=O)O)C(=O)NCCOCCOCCOCCOCC(=O)N[C@@H](CCCCNC(=O)CCCc2ccc(C(F)(F)F)c(F)c2)C(=O)O)NC(=O)[C@H](CC(C)C)NC(=O)[C@H](CCCNC(=N)N)NC(=O)CNC1=O [SFLAP3-ABCF3-3F] ({DOTA}-GRCTGRGDLGRLCYPD[NH(CH2CH2O)4CH2CO]K(X2)-OH; disulfide 3-13)
in vivo performance (biodistribution, tumor/nontumor ratios) ([3]; SFLAP3 conjugates with various ABX, 24 h): best in vivo performance among all the tested ABX
